From PubChem BioAssay (NCI) come the findings set out here.

Test systems include A549 NSCLC; EKVX NSCLC; HCT-15 colon; K-562 leukemia; NCI-H460 lung; NCI-H522 lung; OVCAR-3 ovarian; OVCAR-5 ovarian; PC-3 prostate; SF-268 CNS.
Holding throughout (test): DTP human tumour cell line panel, 48 h

Structures are written as SMILES.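 96-well plates; 48 h exposure; 5 concentrations. Endpoints by linear interpolation between flanking doses. Not reached: highest tested concentration assigned. Abbreviation: GI50, concentration required for 50% inhibition of growth. TGI marks complete inhibition of growth.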

The GI50 is the concentration giving 50% growth inhibition. In general, TGI refers to the concentration giving total growth inhibition. The low end stands for more potent growth arrest, the high end for less potent growth arrest. As to `COc1ccc(Cc2nc3cc(OC)c(OC)cc3c(=O)[nH]2)cc1`, the GI50 was 3610 nM in the assay on A549 NSCLC; 17.3 µM in the assay on EKVX NSCLC; 3570 nM in the assay with HCT-15 colon; 34300 nM in the assay with K-562 leukemia; 15300 nM in the assay on NCI-H460 lung; 14500 nM in the assay with NCI-H522 lung. Further, the GI50 in the assay on OVCAR-3 ovarian was 12500 nM; in the assay with OVCAR-5 ovarian, 3740 nM; in the assay with PC-3 prostate it was 22000 nM; in the assay on SF-268 CNS it was 3520 nM. Further, the TGI is over 54.3 µM with A549 NSCLC; over 92.5 µM with EKVX NSCLC; over 100 µM in the assay with HCT-15 colon; over 100 µM in the assay on K-562 leukemia; over 100 µM with NCI-H460 lung; over 100 µM with NCI-H522 lung. In addition, the TGI with OVCAR-3 ovarian was over 66.1 µM; in the assay with OVCAR-5 ovarian, over 74.1 µM; in the assay with PC-3 prostate it was over 100 µM; in the assay on SF-268 CNS, over 45.6 µM.

For the molecule `C#Cc1cccc(NC(=O)C2CCCN(C(=O)CCl)C2)c1` (stereo not given), the GI50 with A549 NSCLC is over 82500 nM; in the assay on EKVX NSCLC, over 82.5 µM; in the assay with HCT-15 colon it was 28300 nM; in the assay on K-562 leukemia it was 36600 nM; in the assay with NCI-H460 lung, over 82500 nM; with NCI-H522 lung it was 14700 nM. Also, the GI50 in the assay on OVCAR-3 ovarian, in the assay with OVCAR-5 ovarian, in the assay with PC-3 prostate and in the assay on SF-268 CNS was over 82500 nM each time. The TGI in the assay on A549 NSCLC was over 82.5 µM; in the assay with EKVX NSCLC it was over 82.5 µM; in the assay on HCT-15 colon it was over 82.5 µM; with K-562 leukemia, over 82.5 µM; with NCI-H460 lung, over 82.5 µM; with NCI-H522 lung, 32.7 µM. Moreover, the TGI in the assay on OVCAR-3 ovarian, in the assay with OVCAR-5 ovarian, in the assay with PC-3 prostate and in the assay on SF-268 CNS was over 82.5 µM in each case.

As for `COc1ccc(/C=C\c2cc(OC)c(OC)c(OC)c2)c(NS(=O)(=O)c2ccc(C(C)(C)C)cc2)c1O`, the GI50 is 626 nM in the assay on A549 NSCLC; 0.706 µM with EKVX NSCLC; 234 nM in the assay on HCT-15 colon; 71.4 nM with K-562 leukemia; 375 nM in the assay with NCI-H460 lung; 213 nM in the assay with NCI-H522 lung. The GI50 with OVCAR-3 ovarian was 225 nM; in the assay on OVCAR-5 ovarian, 626 nM; in the assay on PC-3 prostate, 369 nM; in the assay with SF-268 CNS it was 1710 nM. Besides, the TGI was 33 µM in the assay on A549 NSCLC; 26.3 µM with EKVX NSCLC; 16.2 µM with HCT-15 colon; over 100 µM in the assay with K-562 leukemia; 11 µM in the assay with NCI-H460 lung; 12.2 µM in the assay with NCI-H522 lung. The total growth inhibition concentration (TGI) in the assay with OVCAR-3 ovarian was determined as 12 µM; in the assay on OVCAR-5 ovarian, 22.3 µM; in the assay on PC-3 prostate it was 17 µM; in the assay on SF-268 CNS, 41.2 µM.

On to `N#CC(NC(=O)CCl)=C(Cl)Cl`, for which the GI50 with A549 NSCLC is 3510 nM; with EKVX NSCLC it was 1.85 µM; in the assay with HCT-15 colon, 680 nM; with K-562 leukemia, 595 nM; in the assay with NCI-H460 lung it was 2690 nM; with NCI-H522 lung it was 437 nM. Moreover, the GI50 in the assay with OVCAR-3 ovarian was 1130 nM; in the assay with OVCAR-5 ovarian it was 1960 nM; in the assay with PC-3 prostate, 1690 nM; in the assay with SF-268 CNS it was 1970 nM. Further, the TGI with A549 NSCLC was found to be 13.8 µM; in the assay on EKVX NSCLC it was 3.81 µM; in the assay with HCT-15 colon, 2.34 µM; with K-562 leukemia it was 2.71 µM; in the assay with NCI-H460 lung, 7.47 µM; with NCI-H522 lung, 1.83 µM. Moreover, the TGI worked out at 2.46 µM in the assay with OVCAR-3 ovarian, 3.47 µM in the assay on OVCAR-5 ovarian, 4.22 µM in the assay on PC-3 prostate and 4.66 µM in the assay on SF-268 CNS.

Regarding `Cc1ccc(C2=C(Cl)C(=O)C(c3ccc(C)cc3)=C(Cl)C2=O)cc1`, the TGI in the assay with A549 NSCLC, in the assay with EKVX NSCLC, in the assay with HCT-15 colon, in the assay on K-562 leukemia, in the assay with NCI-H460 lung and with NCI-H522 lung was over 100 µM throughout. The TGI with OVCAR-3 ovarian, in the assay with OVCAR-5 ovarian, in the assay on PC-3 prostate and in the assay with SF-268 CNS was over 100 µM each time.

On to `Cn1ccnc1C(=O)/C=C/c1ccc(C(=O)Nc2c(F)c(F)c(F)c(F)c2F)cc1`, for which the GI50 was 1790 nM with A549 NSCLC; 2.36 µM with EKVX NSCLC; 1110 nM in the assay with HCT-15 colon; 526 nM in the assay on K-562 leukemia; 1780 nM in the assay with NCI-H460 lung; 1800 nM in the assay on NCI-H522 lung. The GI50 in the assay with OVCAR-3 ovarian is 1400 nM; with OVCAR-5 ovarian, 1820 nM; in the assay with PC-3 prostate, 1620 nM; with SF-268 CNS it was 1810 nM. In addition, the TGI with A549 NSCLC came to 4.16 µM; with EKVX NSCLC it was 5.85 µM; in the assay on HCT-15 colon, 4.3 µM; in the assay on K-562 leukemia, 2.83 µM; in the assay with NCI-H460 lung, 5.11 µM; with NCI-H522 lung, 3.96 µM. In addition, the TGI was 2.74 µM in the assay with OVCAR-3 ovarian, 3.9 µM with OVCAR-5 ovarian, 6.54 µM in the assay on PC-3 prostate and 4.42 µM in the assay with SF-268 CNS.

In the case of `C=CCN=C(N/N=C/c1ccc([N+](=O)[O-])o1)NS(=O)(=O)c1cc(C(=O)Nc2ccccc2)c(Cl)cc1SCC(N)=O`, the GI50 in the assay on A549 NSCLC was over 100000 nM; in the assay with EKVX NSCLC, 22.9 µM; in the assay with HCT-15 colon it was over 100000 nM; in the assay with K-562 leukemia, 9160 nM; with NCI-H460 lung, 69400 nM; in the assay on NCI-H522 lung, 27800 nM. Moreover, the GI50 in the assay with OVCAR-3 ovarian was 14700 nM; in the assay on OVCAR-5 ovarian, over 100000 nM; in the assay on PC-3 prostate it was 33000 nM; in the assay on SF-268 CNS, 29000 nM. Further, the concentration for total growth inhibition (TGI) in the assay with A549 NSCLC was over 100 µM; with EKVX NSCLC, over 100 µM; in the assay on HCT-15 colon it was over 100 µM; in the assay with K-562 leukemia it was 49.8 µM; in the assay on NCI-H460 lung, over 100 µM; with NCI-H522 lung, 67.1 µM. Further, the TGI in the assay with OVCAR-3 ovarian is 39.8 µM; in the assay on OVCAR-5 ovarian it was over 100 µM; in the assay on PC-3 prostate, over 100 µM; with SF-268 CNS, over 100 µM.

As to `CNCc1cccc2c1OCCOCCOCCC(C)S(=O)(=O)c1ccc(cc1)-c1cnc(N)c(n1)C(=O)N2` (stereo not given), the GI50 in the assay with A549 NSCLC was 1090 nM; in the assay on EKVX NSCLC, 4.46 µM; in the assay with HCT-15 colon, 1110 nM; in the assay with K-562 leukemia, 1500 nM; in the assay on NCI-H460 lung it was 1120 nM; with NCI-H522 lung, 1230 nM. Further, the GI50 is 1160 nM in the assay on OVCAR-3 ovarian, 3820 nM in the assay on OVCAR-5 ovarian, 1490 nM with PC-3 prostate and 1180 nM in the assay on SF-268 CNS. The TGI in the assay with A549 NSCLC is 6.83 µM; in the assay with EKVX NSCLC, 18.6 µM; in the assay on HCT-15 colon it was 6.2 µM; in the assay on K-562 leukemia, 10.4 µM; in the assay on NCI-H460 lung, 2.73 µM; in the assay on NCI-H522 lung, 3.25 µM. Also, the TGI was found to be 2.59 µM in the assay with OVCAR-3 ovarian, 11.4 µM in the assay with OVCAR-5 ovarian, 17.9 µM with PC-3 prostate and 3.33 µM in the assay on SF-268 CNS.
